The values below come from PubChem BioAssay (NCI).

Some test systems named below: IGROV1 ovarian; M14 melanoma; MOLT-4 leukemia; NCI/ADR-RES ovarian; OVCAR-4 ovarian; OVCAR-5 ovarian; PC-3 prostate; SF-295 CNS; SR leukemia; TK-10 renal.
What all share (experiment): NCI tumour cell line growth inhibition, 48 h

Several values for one entry are separate records, joined by “and”; a condition that tells them apart may be missing. Equal entries are not always repeated.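 Each compound was tested at five concentrations against cells in 96-well plates for 48 hours. GI50: concentration for 50% inhibition of growth. TGI marks complete inhibition of growth.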

Turning to `O=S(=O)(NCCCNc1cc(-c2cn(-c3ccccc3)nc2-c2cccc(O)c2)ccn1)c1ccc(F)cc1`, the GI50 is 4.29 µM with IGROV1 ovarian; 2.85 µM in the assay with M14 melanoma; 2.15 µM in the assay with MOLT-4 leukemia; 3.24 µM in the assay on NCI/ADR-RES ovarian; 3.82 µM with OVCAR-4 ovarian; 3.33 µM in the assay on OVCAR-5 ovarian. Also, the GI50 in the assay with PC-3 prostate was 3.11 µM; with SF-295 CNS, 1.95 µM; in the assay with SR leukemia, 2.08 µM; in the assay with TK-10 renal it was 7.41 µM. The TGI in the assay on IGROV1 ovarian stood at 33.5 µM; with M14 melanoma, 8.75 µM; in the assay with MOLT-4 leukemia it was 6.55 µM; in the assay on NCI/ADR-RES ovarian it was 22.4 µM; in the assay on OVCAR-4 ovarian it was 48.9 µM; in the assay on OVCAR-5 ovarian it was 33.5 µM. The TGI in the assay with PC-3 prostate stood at 8.5 µM; with SF-295 CNS it was 4.09 µM; with SR leukemia, 6.09 µM; in the assay on TK-10 renal, 31.5 µM.

With `COc1cc(/C=C/C(=O)O[C@H]2[C@H](O[C@@H]3O[C@@H](C)[C@H](O)[C@@H](O)[C@H]3O)[C@@H](O)[C@H](OCCc3ccc(O)c(O)c3)O[C@@H]2COC2OCC(O)(CO)C2O)ccc1O` (some centres undefined), the GI50 with IGROV1 ovarian, in the assay on M14 melanoma, in the assay with MOLT-4 leukemia, in the assay with NCI/ADR-RES ovarian, in the assay with OVCAR-4 ovarian and in the assay with OVCAR-5 ovarian was above 100 µM each time. For the same molecule, the GI50 in the assay with PC-3 prostate, with SF-295 CNS, in the assay with SR leukemia and with TK-10 renal was above 100 µM each time. Besides, the TGI with IGROV1 ovarian, in the assay on M14 melanoma, in the assay with MOLT-4 leukemia, in the assay with NCI/ADR-RES ovarian, in the assay on OVCAR-4 ovarian and with OVCAR-5 ovarian was above 100 µM throughout. Moreover, the TGI with PC-3 prostate, in the assay with SF-295 CNS, in the assay with SR leukemia and with TK-10 renal was above 100 µM in each case.

Consider `CC1CCN(CCOc2ccc(CNc3ccc4nc(CCC5CCCCC5)[nH]c4c3)cc2)CC1`, for which the GI50 is 1.59 µM with IGROV1 ovarian; 1.56 µM in the assay with M14 melanoma; 1.6 µM with MOLT-4 leukemia; 1.81 µM in the assay on NCI/ADR-RES ovarian; 2.62 µM in the assay with OVCAR-4 ovarian; 1.76 µM with OVCAR-5 ovarian. Moreover, the GI50 in the assay on PC-3 prostate was 1.44 µM; in the assay with SF-295 CNS, 1.87 µM; with SR leukemia, 0.485 µM; with TK-10 renal it was 2.24 µM. Also, the TGI in the assay on IGROV1 ovarian amounted to 3.27 µM; in the assay with M14 melanoma, 3.01 µM; with MOLT-4 leukemia, 4.5 µM; in the assay with NCI/ADR-RES ovarian, 4.12 µM; in the assay with OVCAR-4 ovarian, 8.18 µM; with OVCAR-5 ovarian it was 3.44 µM. Further, the TGI in the assay on PC-3 prostate turned out to be 2.93 µM; in the assay on SF-295 CNS, 3.46 µM; in the assay on SR leukemia, 2.66 µM; in the assay on TK-10 renal it was 4.92 µM.

Regarding `N#Cc1cc2c(cc1Cl)Sc1nnc(Nc3cccc4ccccc34)n1S2(=O)=O`, the GI50 in the assay with IGROV1 ovarian is 7.38 µM; in the assay on M14 melanoma it was 3.81 µM; in the assay with MOLT-4 leukemia it was 3.84 µM; with NCI/ADR-RES ovarian it was 2.11 µM; in the assay on OVCAR-4 ovarian it was 6.48 µM; in the assay on OVCAR-5 ovarian it was 15.1 µM. Further, the GI50 was 4.75 µM in the assay on PC-3 prostate, 16.8 µM in the assay on SF-295 CNS, 2.21 µM with SR leukemia and 1.91 µM in the assay on TK-10 renal. Besides, the TGI was 21.2 µM with IGROV1 ovarian; 22.8 µM in the assay with M14 melanoma; above 100 µM in the assay on MOLT-4 leukemia; 4.4 µM in the assay with NCI/ADR-RES ovarian; 26.8 µM in the assay on OVCAR-4 ovarian; 28.4 µM in the assay on OVCAR-5 ovarian. The TGI was 18 µM in the assay on PC-3 prostate, 31.8 µM in the assay on SF-295 CNS, 7.82 µM with SR leukemia and 5.07 µM in the assay on TK-10 renal.

Take `CC1(C)[C@H](O)[C@H](F)C[C@@]2(C)Oc3ccc(C(=O)Nc4ccc5c(c4)NC(=O)C54CCN(CCCCC#N)CC4)cc3C[C@H]12`: the GI50 in the assay with IGROV1 ovarian was 2.05 µM and 3.63 µM; in the assay with M14 melanoma, 0.606 µM and 1.06 µM; with MOLT-4 leukemia, 0.00568 µM; in the assay on NCI/ADR-RES ovarian it was 42.9 µM; with OVCAR-4 ovarian it was 4.31 µM and 6.31 µM; with OVCAR-5 ovarian it was 5.41 µM and 5.82 µM. The GI50 in the assay on PC-3 prostate is 0.0225 µM; in the assay with SF-295 CNS, 0.00402 µM; with SR leukemia, 0.0106 µM; in the assay with TK-10 renal it was 3.44 µM. Also, the TGI with IGROV1 ovarian is 34.4 µM; in the assay on M14 melanoma it was 4.97 µM and 3.79 µM; in the assay on MOLT-4 leukemia, 1.09 µM and 1.63 µM; with NCI/ADR-RES ovarian it was above 100 µM; with OVCAR-4 ovarian, 20.4 µM; in the assay on OVCAR-5 ovarian, 34.5 µM. The TGI in the assay with PC-3 prostate was 2.84 µM and 5.24 µM; in the assay with SF-295 CNS it was 0.0181 µM; with SR leukemia, 2.6 µM; with TK-10 renal, 14.7 µM.

With `Nc1nc(-c2ccc(Cl)cc2)nc2c1sc(=S)n2-c1ccccc1`, the GI50 is 3.3 µM with IGROV1 ovarian; 7.87 µM with M14 melanoma; above 100 µM in the assay with MOLT-4 leukemia; 3.7 µM in the assay with NCI/ADR-RES ovarian; 1.95 µM with OVCAR-4 ovarian; 4.98 µM in the assay with OVCAR-5 ovarian. The GI50 with PC-3 prostate was 17.3 µM; in the assay on SF-295 CNS, 2.72 µM; with SR leukemia, 5.82 µM; with TK-10 renal it was 2.22 µM. In addition, the TGI was 17 µM in the assay with IGROV1 ovarian; 38.1 µM in the assay with M14 melanoma; above 100 µM in the assay on MOLT-4 leukemia; 19.8 µM in the assay on NCI/ADR-RES ovarian; 4.57 µM with OVCAR-4 ovarian; 20.5 µM in the assay on OVCAR-5 ovarian. Further, the TGI was above 100 µM in the assay with PC-3 prostate, 7.62 µM in the assay with SF-295 CNS, above 100 µM in the assay with SR leukemia and 5.9 µM in the assay with TK-10 renal.

As for `COc1cc(-c2ncn(/C=C\c3nnco3)n2)cc(C(F)(F)F)c1`, the GI50 with IGROV1 ovarian was 1.89 µM; in the assay with M14 melanoma, 0.791 µM; with MOLT-4 leukemia, 0.0411 µM; in the assay with NCI/ADR-RES ovarian, 0.2 µM; in the assay with OVCAR-4 ovarian it was 0.211 µM; with OVCAR-5 ovarian it was 1.78 µM. For the same molecule, the GI50 was 0.189 µM with PC-3 prostate, 0.08 µM with SF-295 CNS, 0.021 µM in the assay with SR leukemia and 0.726 µM with TK-10 renal. Also, the TGI with IGROV1 ovarian is above 100 µM; with M14 melanoma it was 37.2 µM; with NCI/ADR-RES ovarian, above 100 µM; in the assay with OVCAR-4 ovarian, above 72.4 µM; with OVCAR-5 ovarian, above 100 µM; in the assay on PC-3 prostate, above 100 µM. Also, the TGI in the assay on SF-295 CNS is above 100 µM; with SR leukemia, above 100 µM; in the assay on TK-10 renal, 23 µM.
